In US12383598B2, “Method for treating gingivitis and gingival atrophy and repairing oral mucosa” (ADVANCED HEALTHTECH BIOPEPTIDE LABORATORIES CO., LTD, priority 2021, dated 2025):
Ends that are not written are not given here. Peptide text beside a SMILES is read from it.

Legend:
Assay type in all cases: cell-based
TGF-β1 = assay: Gene expression of TGF-β1 in human gingival fibroblasts (RT-PCR); conditions: human HGF, FIG. 9A, 9B
human HGF = assay: Synthesis of extracellular matrix (ECM) from human HGF; conditions: 50 μM KTTKS or GEKG; TGF-β1 0, 0.5 and 5 ng/ml; FIG. 10
Protocol: It is determined whether or not there exists synergism between GEKG or KTTKS and TGF-β1 in the synthesis of ECM when human HGF was treated with TGF-β1 (0.5 or 5 ng/ml) alone or in combination with KTTKS or GEKG (50 µM).
Human HGF were pre-cultured in the Dulbecco's Modified Eagle Medium (DMEM) containing 0.2% bovine serum for 24 hours, and then treated with 3 different concentrations (0, 0.5 and 5 ng/ml) of TGF-β1 for 24 hours, followed by further culturing for 24 hours in the absence of KTTKS and GEKG (solid line) or in the presence of 50 μM KTTKS or GEKG (dotted line).

Type I collagen = assay: Gene expression of Type I collagen in human gingival fibroblasts (RT-PCR); conditions: concentration of 0 to 40 μl, FIG. 8B
Protocol: Production of Type I collagen in human gingival fibroblasts was observed. There is a dose-dependent relationship between expression of Type I collagen and GEKG and KTTKS in a concentration of 0 to 40 μl.

[1] = test system: primary oral epithelial cells; assay: Death of primary oral epithelial cells induced by free radical H2O2; conditions: different concentrations, in vitro; FIG. 7
macrophages [2] = assay: NO production from macrophages induced by LPS; conditions: in vitro; FIGS. 3 and 4
Protocol: In vitro anti-inflammation of GEKG and KTTKS was evaluated by using the well-known inflammation model of NO production from macrophages induced by lipopolysaccharide (LPS).

TNFα = TNFα (Homo sapiens, UniProt P01375); assay: TNFα inhibition in L929 cells; conditions: for O.D. (TNFα inhibition): O.D. at 490/630 nm
Protocol: (§1) In vitro L929 cell proliferation/cytotoxicity assay was measured in a microtiter plate. L929 cells were cultured in the Eagle's minimum essential medium (EMEM) containing 10% bovine serum, 1% P/S and 1% non-essential amino acids. Converged L929 cells were washed by 2 ml of a phosphate buffer solution (PBS) and then treated with trypsin, followed by resuspension in the EMEM. 200 μl of the cell suspension were taken by suction for cell density counting, and the remaining cell suspension were centrifuged at 1500 rpm for 5 minutes. The supernatant was removed, and the EMEM was added for diluting the cells to form a final concentration of 1.5×10^5 cells/ml. 100 μl of the resultant cell suspension were added to each well of a 96-well flat-bottom microtiter plate, and then incubated at 37° C. and 5% CO2 for 24 hours.
GEKG and KTTKS were re-solved with 1× PBS to form solutions having a concentration equivalent to 1 mg GEKG/ml and 1 mg KTTKS/ml, respectively, followed by further dilution with 1× PBS to form solutions having a concentration of 500, 125, 31.25 […], respectively, and the resultant diluted solutions were mixed with a TNFα solution with an equal volume, and incubated for 1 hour. 50 μl of each of the 4 mixtures were added to the above 96-well flat-bottom microtiter plate containing L929 cells incubated for 24 hours, and actinomycin D (ActD) with a final concentration of 2 μg/ml and TNFα with a final concentration of 0.1 ng/ml were added to each well. Test wells containing 2 μg/ml ActD only and 0.1 ng/ml TNFα only were used as positive controls and blank controls, respectively. The resultant 96-well flat-bottom microtiter plate was further incubated at 37° C. and 5% CO2 for 24 hours. O.D. values at 490/630 nm were measured by a microplate reader. TNFα inhibition was calculated by the following formula: […]

[3] = Cytotoxicity to L929 cells (XTT); conditions: mouse, L929 cells
Protocol: as §1
(§2) GEKG and KTTKS were re-solved with 1× PBS to form solutions having a concentration equivalent to 1 mg GEKG/ml and 1 mg KTTKS/ml, respectively, followed by further […], respectively. 50 μl of each of the 4 diluted solutions were added to the above 96-well flat-bottom microtiter plate containing L929 cells incubated for 24 hours, and ActD with a final concentration of 2 μg/ml was added to each well. The resultant 96-well flat-bottom microtiter plate was further incubated at 37° C. and 5% CO2 for 24 hours, followed by addition of 50 μl of 2,3-bis(2-methoxy-4-nitro-5-sulfophenyl)-5-[(phenylamino)carbonyl]-2H-tetrazolium hydroxide (XTT) to each well and further incubation for 1 hour. O.D. values at 490/630 nm were measured by a microplate reader. Cytotoxicity was calculated by the following formula: […]

L929 cells = assay: Cytotoxicity to L929 cells (XTT); conditions: for O.D. (cytotoxicity): O.D. at 490/630 nm; for Cytotoxicity to L929 cells (in words): series of dilutions
Protocol: as §1, §2

macrophages [4] = assay: H2O2 production from macrophages induced by LPS; conditions: in vitro; FIG. 5
Protocol: An ability of GEKG and KTTKS against inflammatory oxidation pressure in vitro was evaluated by using the well-known inflammation model of H2O2 production from macrophages induced by lipopolysaccharide (LPS).

[5] = test system: primary oral epithelial cells; assay: Proliferation of primary oral epithelial cells; conditions: different concentrations, in vitro; FIG. 6
[6] = test system: human gingival fibroblasts (HGF); assay: Proliferation of human gingival fibroblasts (HGF); conditions: different concentrations, in vitro; FIG. 8A

TNFα, sequence (P01375 77-233 limits assumed, species assumed): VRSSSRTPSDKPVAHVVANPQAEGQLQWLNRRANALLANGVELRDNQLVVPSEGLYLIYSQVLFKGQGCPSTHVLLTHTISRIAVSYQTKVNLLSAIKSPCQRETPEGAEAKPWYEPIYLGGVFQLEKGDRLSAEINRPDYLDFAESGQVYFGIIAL

NCCCC[C@H](NC(=O)[C@H](CCC(=O)O)NC(=O)CN)C(=O)NCC(=O)O [GEKG] (H-GEKG-OH)
Gene expression of TGF-β1 (TGF-β1): stimulate gene expression of TGF-β1 in transcription | Synthesis of ECM (collagen and fibrin) from human HGF (human HGF): exhibit a more significant ability in inducing human HGF for synthesizing ECM than TGF-β1 | Gene expression of Type I collagen (Type I collagen): stimulate gene expression of Type I collagen in transcription | Reduction of death of primary oral epithelial cells induced by free radical H2O2 [1]: reduce death of primary oral epithelial cells induced by free radical H2O2 in vitro in a dose-dependent manner | Inhibition of NO production from macrophages induced by LPS (macrophages [2]): inhibit NO production from macrophages induced by LPS in a dose-dependent manner | O.D. (TNFα inhibition) (TNFα; GEKG dilution 1/16): 1.60 | O.D. (TNFα inhibition) (TNFα; GEKG dilution 1/64): 0.80 | O.D. (TNFα inhibition) (TNFα; GEKG dilution 1/256): 0.61 | O.D. (TNFα inhibition) (TNFα; GEKG dilution 1/512): 0.56 | O.D. (TNFα inhibition) (TNFα; GEKG dilution 1/1024): 0.51 | O.D. (TNFα inhibition) (TNFα; GEKG dilution 1/2048): 0.48 | O.D. (TNFα inhibition) (TNFα; GEKG dilution 1/4096): 0.51 | O.D. (TNFα inhibition) (TNFα; GEKG dilution ¼): 2.87 | cytotoxicity at 24 h ([3]; GEKG dilution 1/16): -12.3% | cytotoxicity at 24 h ([3]; GEKG dilution 1/64): -2.32% | cytotoxicity at 24 h ([3]; GEKG dilution 1/256): -4.61% | cytotoxicity at 24 h ([3]; GEKG dilution 1/512): -1.71% | cytotoxicity at 24 h ([3]; GEKG dilution 1/1024): 0.11% | cytotoxicity at 24 h ([3]; GEKG dilution 1/2048): 1.9% | cytotoxicity at 24 h ([3]; GEKG dilution 1/4096): -4.72% | cytotoxicity at 24 h ([3]; GEKG dilution ¼): -58.7% | O.D. (cytotoxicity) (L929 cells; GEKG dilution 1/16): 2.01 | O.D. (cytotoxicity) (L929 cells; GEKG dilution 1/64): 1.83 | O.D. (cytotoxicity) (L929 cells; GEKG dilution 1/256): 1.87 | O.D. (cytotoxicity) (L929 cells; GEKG dilution 1/512): 1.82 | O.D. (cytotoxicity) (L929 cells; GEKG dilution 1/1024): 1.79 | O.D. (cytotoxicity) (L929 cells; GEKG dilution 1/2048): 1.75 | O.D. (cytotoxicity) (L929 cells; GEKG dilution 1/4096): 1.87 | O.D. (cytotoxicity) (L929 cells; GEKG dilution ¼): 2.84 | Cytotoxicity to L929 cells (in words) (L929 cells): does not induce cytotoxicity | Inhibition of H2O2 production from macrophages induced by LPS (macrophages [4]): inhibit H2O2 production from macrophages induced by LPS in a dose-dependent manner | Promotion of proliferation of primary oral epithelial cells [5]: promote proliferation of primary oral epithelial cells in vitro in a dose-dependent manner | Effect on proliferation of HGF [6]: neither GEKG nor KTTKS in different concentrations exhibits a significant effect in promoting proliferation of HGF

KTTKS [KTTKS]
Gene expression of TGF-β1 (TGF-β1): stimulate gene expression of TGF-β1 in transcription | Synthesis of ECM (collagen and fibrin) from human HGF (human HGF): exhibit a more significant ability in inducing human HGF for synthesizing ECM than TGF-β1 | Gene expression of Type I collagen (Type I collagen): stimulate gene expression of Type I collagen in transcription | Reduction of death of primary oral epithelial cells induced by free radical H2O2 [1]: reduce death of primary oral epithelial cells induced by free radical H2O2 in vitro in a dose-dependent manner | Inhibition of NO production from macrophages induced by LPS (macrophages [2]): inhibit NO production from macrophages induced by LPS in a dose-dependent manner | O.D. (TNFα inhibition) (TNFα; KTTKS 4.156 μg/ml): 0.479 | O.D. (TNFα inhibition) (TNFα; KTTKS 16.625 μg/ml): 0.597 | O.D. (TNFα inhibition) (TNFα; KTTKS 66.5 μg/ml): 1.042 | O.D. (TNFα inhibition) (TNFα; KTTKS 266 μg/ml): 2.363 | inhibition at 4.156 µg/mL (TNFα; L929, KTTKS 4.156 μg/ml): 10.5% | inhibition at 16.625 µg/mL (TNFα; L929, KTTKS 16.625 μg/ml): 21.1% | inhibition at 66.5 µg/mL (TNFα; L929, KTTKS 66.5 μg/ml): 60.9% | inhibition at 266 µg/mL (TNFα; L929, KTTKS 266 μg/ml): 179% | cytotoxicity at 24 h, 4.156 μg/ml ([3]; KTTKS 4.156 μg/ml): -8.3% | cytotoxicity at 24 h, 16.625 μg/ml ([3]; KTTKS 16.625 μg/ml): -3.9% | cytotoxicity at 24 h, 66.5 μg/ml ([3]; KTTKS 66.5 μg/ml): -20.8% | cytotoxicity at 24 h, 266 μg/ml ([3]; KTTKS 266 μg/ml): -77.1% | O.D. (cytotoxicity) (L929 cells; KTTKS 4.156 μg/ml): 1.600 | O.D. (cytotoxicity) (L929 cells; KTTKS 16.625 μg/ml): 1.535 | O.D. (cytotoxicity) (L929 cells; KTTKS 66.5 μg/ml): 1.784 | O.D. (cytotoxicity) (L929 cells; KTTKS 266 μg/ml): 2.616 | Cytotoxicity to L929 cells (in words) (L929 cells): does not induce cytotoxicity | Inhibition of H2O2 production from macrophages induced by LPS (macrophages [4]): inhibit H2O2 production from macrophages induced by LPS in a dose-dependent manner | Promotion of proliferation of primary oral epithelial cells [5]: promote proliferation of primary oral epithelial cells in vitro in a dose-dependent manner | Effect on proliferation of HGF [6]: neither GEKG nor KTTKS in different concentrations exhibits a significant effect in promoting proliferation of HGF

TGF-β1: tumor growth factor-β1 used at 0.5 or 5 ng/ml to treat human HGF [reference compound]
Synthesis of ECM (collagen and fibrin) from human HGF (human HGF): up-regulate biosynthesis of ECM
